Reference: article PMC12181424, “A genetically tractable branch of environmental Pedobacter from the phylum Bacteroidota represents a hotspot for natural product discovery” (Scientific Reports, 2025)
Non-standard residues stand in square brackets, D forms with d. Residues, ends and D or L forms follow the SMILES beside them. *: point of attachment. Isovaleryl = CC(C)CC(=O)*; ΔVal = CC(C)=C(N)C(=O)O; X1 = CC[C@H](C)C(=O)*

What was measured:
[1] = tested on: P. cryoconitis DSM 14825^T; experiment: Antibiotic sensitivity screen of wild-type strain (choice of selection marker); assay type: cell-based, Pedobacter cryoconitis; conditions: P. cryoconitis DSM 14825^T wild type
Source text: (§1) We built a random transposon insertion plasmid (pCRYO1 (Fig. S2)) based on a HIMAR transposon pSAMbt system, initially designed for Bacteroides thetaiotaomicron in which we introduced the constitutive P. cryoconitis promoters of gyrB and rpl13 and used erythromycin as a resistance marker[41] (Fig. 3A). We obtained erythromycin-resistant clones by conjugation and electroporation and confirmed the presence of the ermR gene by colony PCR (Material and Methods).
(§2) To genetically modify P. cryoconitis, we first screened different antibiotics (streptomycin, ampicillin, kanamycin, apramycin, chloramphenicol, and erythromycin) against P. cryoconitis PAMC 27485 and P. cryoconitis DSM 14825^T. Only erythromycin (100 µg/ml) and chloramphenicol (150 µg/ml) were effective and selected as markers. A transposon plasmid, pCRYO-01 was modified based on pSAM bt[30] by assembling PCR-amplified regions upstream of the P. cryoconitis PAMC 27485 gyrB (AMQ00279.1, 228 bps) and rpl13 genes (AMQ00867.1, 178 bps) with the erythromycin resistance (ermR) and the transposase genes via Gibson Assembly. PCR reactions were carried out using Q5 polymerase (New England Biolabs) as specified by the manufacturer. Conjugation experiments were performed using E. coli WM3064/pCRYO-01 and P. cryoconitis (overnight cultures) on LB, POM, and R2A (with 5 mM final MgCl2) agar with different donor-recipient ratios (1:1, 2:1, 3:1) for 48 h. Cells were scraped off, serially diluted, and plated on R2A agar plates with erythromycin (50, 100, 150, and 200 µg/ml). Erythromycin-resistant colonies were tested for ermR presence and plasmid backbone absence by colony PCR. A 3:1 donor-recipient ratio at 23 °C yielded the highest number of transformants. Dilution of the inoculum at 10^− 1 or 10^− 2 was optimal for single colonies, with more transformants observed in P. cryoconitis PAMC 27485 compared to P. cryoconitis DSM 14825^T. For electroporation, P. cryoconitis PAMC 27485 cells (OD 0.4) were made competent by washing 3-times with ice-cold 10% glycerol (centrifugation at 5000 rpm). Aliquots of 50 µl were mixed with pCRYO1. After electroporation (12.5 kV/cm), cells were cultured without antibiotics for 5 h, then plated on R2A with 150 µg/ml erythromycin. Colonies appeared within 3 days, with 100% carrying the transposon cassette, though efficiency was lower than with conjugation. Electroporation of competent cells stored at -80 °C was also possible.

[2] = tested on: P. cryoconitis PAMC 27485; experiment: as above; assay type: cell-based, Pedobacter cryoconitis; conditions: P. cryoconitis PAMC 27485 wild type
Source text: as §1, §2

[3] = tested on: Escherichia coli ATCC35218; assay type: cell-based
[4] = tested on: Mycobacterium smegmatis ATCC607; assay type: cell-based
[5] = tested on: Staphylococcus aureus ATCC33592; assay type: cell-based
Candida albicans FH2173 = assay type: cell-based
[6] = tested on: Septoria tritici MUCL45407; assay type: cell-based
[7] = tested on: bacterial and fungal indicator strains; experiment: Screening against bacterial and fungal indicator strains (whole panel, as summarised in the text); assay type: cell-based; conditions: summary in the text of Table S11; no growth inhibitory effects
[8] = tested on: human cysteine protease cathepsin B; experiment: Cysteine protease inhibition testing; assay type: biochemical; conditions: tested concentration 20 µM; procedure of Brinkmann et al.
[9] = tested on: human cysteine protease cathepsin L; experiment: Cysteine protease inhibition testing; assay type: biochemical; conditions: tested concentration 20 µM; procedure of Brinkmann et al.
rhodesain = conditions: tested concentration 20 µM; procedure of Brinkmann et al.
Source text: The cryopeptins are linear lipopeptides containing the non-proteinogenic amino acid dehydrovaline. This amino acid is a rare building block, and its occurrence is yet limited to linear peptides. For instance, dehydrovaline is found in cytotoxic yakuamides from the sponge Ceratopsion sp[42]. and in the myxobacterial antibiotic myxovalargin[43]. […] In addition, 4 and 5 underwent screening against the human cysteine proteases cathepsin B and L, and rhodesain, the cysteine protease of Trypanosoma brucei rhodesiense according to the procedure described in[45].
The minimum inhibitory concentrations (MIC) of pure compounds were determined as described by Orban et al.3 Pure compounds were screened against Escherichia coli ATCC35218, Mycobacterium smegmatis ATCC607, Staphylococcus aureus ATCC33592, Candida albicans FH2173 and Septoria tritici MUCL45407. Protease testings (human cysteine proteases cathepsin B and L, trypanosomal cysteine protease rhodesain) were performed at concentrations of 20 μM as described in Brinkmann et al.4.

| SMILES | concentration that inhibited the growth of the wild-type strain [1] | concentration that inhibited the growth of the wild-type strain [2] | MIC Escherichia coli ATCC 35218 [3] | MIC Myobacterium smegmatis ATCC607 [4] | MIC Staphylococcus aureus ATCC 33592 [5] | MIC Candida albicans FH2173 (Candida albicans FH2173) | MIC Septoria tritici MUCL45407 [6] | Minimal inhibitory concentration against bacterial and fungal indicator strains [7] | protease inhibitory activity, cathepsin B [8] | protease inhibitory activity, cathepsin L [9] | protease inhibitory activity, rhodesain (rhodesain) |
| --- | --- | --- | --- | --- | --- | --- | --- | --- | --- | --- | --- |
| O=C(N[C@H](CO)[C@H](O)c1ccc([N+](=O)[O-])cc1)C(Cl)Cl [chloramphenicol] | 150 µg/mL | 150 µg/mL |  |  |  |  |  |  |  |  |  |
| CC[C@H](C)C(=O)N[C@@H](Cc1ccccc1)C(=O)NC(C(=O)N[C@@H](CCCNC(=N)N)C(=O)NC(C(=O)N[C@@H](CC(C)C)C(=O)O)=C(C)C)=C(C)C [cryopeptin D (4)] (X1-F[ΔVal]R[ΔVal]L-OH) |  |  | >128 µg/mL | >128 µg/mL | >128 µg/mL | >128 µg/mL | >128 µg/mL | > 128 µg/mL | no protease inhibitory activity was observed | no protease inhibitory activity was observed | no protease inhibitory activity was observed |
| CC(C)=C(NC(=O)[C@H](Cc1ccccc1)NC(=O)CC(C)C)C(=O)N[C@@H](CCCNC(=N)N)C(=O)NC(C(=O)N[C@@H](CC(C)C)C(=O)O)=C(C)C [cryopeptin E (5)] (Isovaleryl-F[ΔVal]R[ΔVal]L-OH; N-terminus and C-terminus assumed) |  |  | >128 µg/mL | >128 µg/mL | >128 µg/mL | >128 µg/mL | >128 µg/mL |  | no protease inhibitory activity was observed | no protease inhibitory activity was observed | no protease inhibitory activity was observed |
| CC[C@H]1OC(=O)[C@H](C)[C@@H](O[C@H]2C[C@@](C)(OC)[C@@H](O)[C@H](C)O2)[C@H](C)[C@@H](O[C@@H]2O[C@H](C)C[C@H](N(C)C)[C@H]2O)[C@](C)(O)C[C@@H](C)C(=O)[C@H](C)[C@@H](O)[C@]1(C)O [erythromycin] | 100 µg/mL | 100 µg/mL |  |  |  |  |  |  |  |  |  |
